Values after ≈ are worked out from the molar mass of the structure shown.
Experiments:
[1] = target: T1, fibrin gels (10 mg/mL fibrinogen, 1 U/mL thrombin) (Homo sapiens, UniProt P02671+P02675+P02679); test: Rheometry gelation time, lower fibrinogen concentration fibrin gels; format: biochemical; conditions: n=3
T1 construct: purchased Ethicon (Evicel)
T1 sequence (P02671 20-644 isoform P02671-2 limits assumed): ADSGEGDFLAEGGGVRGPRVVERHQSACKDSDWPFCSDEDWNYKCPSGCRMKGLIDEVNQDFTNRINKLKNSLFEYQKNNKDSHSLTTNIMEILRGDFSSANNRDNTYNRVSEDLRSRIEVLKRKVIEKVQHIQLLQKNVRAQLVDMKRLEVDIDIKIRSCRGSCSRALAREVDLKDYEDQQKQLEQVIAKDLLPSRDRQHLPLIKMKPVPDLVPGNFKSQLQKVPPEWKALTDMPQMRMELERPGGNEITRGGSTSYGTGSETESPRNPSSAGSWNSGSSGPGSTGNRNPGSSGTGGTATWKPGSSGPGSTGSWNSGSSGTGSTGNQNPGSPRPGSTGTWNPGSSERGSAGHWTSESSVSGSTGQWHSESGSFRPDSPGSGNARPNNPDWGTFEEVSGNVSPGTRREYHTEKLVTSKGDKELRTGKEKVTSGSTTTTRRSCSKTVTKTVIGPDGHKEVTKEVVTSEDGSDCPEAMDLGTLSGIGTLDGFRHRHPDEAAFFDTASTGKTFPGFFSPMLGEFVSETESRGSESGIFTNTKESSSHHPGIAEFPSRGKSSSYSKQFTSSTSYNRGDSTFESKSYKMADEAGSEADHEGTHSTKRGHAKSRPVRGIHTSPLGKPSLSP
T1 sequence (P02675 45-491 limits assumed): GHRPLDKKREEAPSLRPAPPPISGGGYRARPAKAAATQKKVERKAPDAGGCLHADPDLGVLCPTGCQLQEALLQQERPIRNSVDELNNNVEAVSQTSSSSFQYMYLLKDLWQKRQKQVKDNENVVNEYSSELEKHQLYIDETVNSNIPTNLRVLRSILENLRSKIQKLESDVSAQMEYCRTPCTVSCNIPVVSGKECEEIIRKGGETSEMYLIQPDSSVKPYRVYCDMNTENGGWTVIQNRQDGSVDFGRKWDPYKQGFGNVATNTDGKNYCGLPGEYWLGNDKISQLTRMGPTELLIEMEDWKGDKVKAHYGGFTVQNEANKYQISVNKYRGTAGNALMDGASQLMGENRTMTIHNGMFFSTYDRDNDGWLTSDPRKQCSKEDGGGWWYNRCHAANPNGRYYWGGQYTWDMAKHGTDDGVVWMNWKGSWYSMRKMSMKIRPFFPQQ
T1 sequence (P02679 27-437 isoform P02679-2 limits assumed): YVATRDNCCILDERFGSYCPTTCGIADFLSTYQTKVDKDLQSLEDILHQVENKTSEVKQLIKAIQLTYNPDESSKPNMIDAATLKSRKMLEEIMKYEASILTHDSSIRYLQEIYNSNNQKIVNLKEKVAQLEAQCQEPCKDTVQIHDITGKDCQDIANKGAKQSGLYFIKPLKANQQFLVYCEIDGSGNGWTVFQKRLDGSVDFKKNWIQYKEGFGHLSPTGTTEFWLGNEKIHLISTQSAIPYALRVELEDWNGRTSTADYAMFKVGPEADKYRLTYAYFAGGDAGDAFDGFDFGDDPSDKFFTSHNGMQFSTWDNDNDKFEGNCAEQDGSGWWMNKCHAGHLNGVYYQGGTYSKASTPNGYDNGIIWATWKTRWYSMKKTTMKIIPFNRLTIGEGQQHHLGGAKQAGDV
Description: The viscoelastic mechanical properties of fibrin gels were characterized using oscillatory shear rheology on a Discovery Hybrid Rheometer 2 (TA Instruments; New Castle, DE) with a 20 mm cone-and-plate geometry at a 1° angle and a 20 mm stage. Inertia, friction, and rotational mapping calibrations were performed prior to each experiment. A Peltier temperature-controlled stage maintained 37° C. and a solvent trap was used to control evaporation during experiments lasting longer than 20 minutes. Gels were prepared by mixing specified concentrations of fibrinogen, dye, and thrombin on the stage. Immediately after combining, the geometry head was lowered to 500 μm (˜1-3 seconds) before beginning the first experiment. Gelation kinetics were monitored in time sweeps at 1% strain and 10 rad/s angular frequency. Strain sweeps were measured from 0.01-1000% strain at 1 Hz frequency. A frequency sweeps measured from 0.01-3 Hz at 1% strain was used to confirmed fibrin independence of frequency.
Rheometry was performed for samples with no dye (PBS alone), TB, EB, and PEG. Stock fibrinogen (Evicel) was used as is or diluted with PBS. Thrombin was diluted in PBS, with or without the various dyes. To determine the gelation time, a final mixture concentration of 10 mg/mL fibrinogen, 1 U/mL thrombin, and 0.01% w/v dye concentration was used. A time sweep was performed up to 20 minutes, after which some minor effects of evaporation in non-gelled samples introduced noise and could not reliably detect the storage modulus (g′). The gelation time was defined as the point at which the g′ exceeded the g″ (viscous modulus) and continued to increase over time.
Rheometry was used to confirm findings obtained using the coagulation analyzer and test conditions at higher fibrinogen concentrations used in high mechanical strength scaffolds. While clotting time and gelation time are similar properties, the terms are utilized discretely due to the differences in the respective assays. However, in controls for gels at higher fibrinogen concentrations, thrombin concentrations were decrease by orders of magnitude to assess initial gel time based on the sensitivity of the rheometer. In order to consistently detect a gelation time, when the g′ value (shear modulus) becomes greater than the g″ value (viscous modulus), conditions were set to […] fibrinogen and 1 U/mL thrombin final concentration using tissue glue for all samples. Sample conditions tested using rheometry included use of PBS (control), TB, EB, or PEG solution to dilute the thrombin so that the final gel concentration of the dye was 0.01% w/v. […]
Initially, g′ and g″ values were on the same scale (<2 Pa). […] Due to this, the gelation time was calculated as when the g′ values exceeded the g″ value and continued to grow over time (arrow, FIG. 5A). […]

[2] = Solubility point in citrate buffer; format: physicochemical; conditions: aqueous buffer; 1× citrate buffer (20 mM sodium citrate, 100 mM sodium chloride pH 7.4)

SMILES | gelation time (g′ exceeds g″) ([1]; 0.01% w/v dye) [s] | solubility [2] [mM] | gelation time (g′ exceeds g″) ([1]; 0.005% w/v dye) [s] | gelation time (g′ exceeds g″) ([1]; 0.12% w/v dye) [s]
Cc1cc(-c2ccc(/N=N/c3ccc4c(S(=O)(=O)O)cc(S(=O)(=O)O)c(N)c4c3O)c(C)c2)ccc1/N=N/c1ccc2c(S(=O)(=O)O)cc(S(=O)(=O)O)c(N)c2c1O [EB, Evans Blue] | 232.1 ± 19.3 |  |  | 
Cc1cc(-c2ccc(/N=N/c3c(S(=O)(=O)O)cc4cc(S(=O)(=O)O)cc(N)c4c3O)c(C)c2)ccc1/N=N/c1c(S(=O)(=O)O)cc2cc(S(=O)(=O)O)cc(N)c2c1O [TB, Trypan Blue] | 168.7 ± 19.9 | 4.58 (≈ 4000 µg/mL) | 106.4 ± 22.5 | 206.7 ± 31.3

From patent US20230414826A1, “FIBRIN HYDROGELS” (Mayo Foundation for Medical Education and Research, priority 2020, published 2023)
